Experiments:
human alpha 2A receptor = biological target: T1, human alpha 2A receptor (Homo sapiens, UniProt P08913); details: FLIPR agonist assay, HEK 293 cells with chimeric G protein; norepinephrine is the standard full agonist
T1 sequence (P08913 1-465): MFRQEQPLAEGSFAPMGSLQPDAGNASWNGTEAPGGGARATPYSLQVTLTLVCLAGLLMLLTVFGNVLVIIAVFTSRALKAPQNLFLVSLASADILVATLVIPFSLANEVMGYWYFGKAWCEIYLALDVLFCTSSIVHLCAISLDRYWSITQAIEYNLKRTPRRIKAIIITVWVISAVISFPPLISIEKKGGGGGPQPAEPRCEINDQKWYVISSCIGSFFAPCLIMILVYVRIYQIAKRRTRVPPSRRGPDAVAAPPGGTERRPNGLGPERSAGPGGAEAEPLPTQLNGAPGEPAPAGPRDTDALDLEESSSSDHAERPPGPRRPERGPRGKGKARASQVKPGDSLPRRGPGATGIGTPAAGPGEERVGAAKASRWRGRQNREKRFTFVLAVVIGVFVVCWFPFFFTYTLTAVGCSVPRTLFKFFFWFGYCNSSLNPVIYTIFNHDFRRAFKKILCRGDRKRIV
Protocol: (§1) HEK 293 cells stably expressing the bovine a1A receptor, human alpha 2A receptor and the chimeric G protein Gai5, are plated in poly-D-lysine coated 384-well plates at 20,000-40,000 cells per well and grown overnight in DMEM supplemented with 10% fetal bovine serum. For FLIPR (fluorometric image plate reader) evaluation, cells are washed twice with HBSS/HEPES Buffer (1× Hanks Buffered Salt Solution, 20 mM HEPES, pH 7.4) prior to the addition of Fluo-4-AM (4 uM Fluo-4-AM, 0.04% pluronic acid in HBSS/HEPES Buffer), a calcium-sensitive dye. Cells are loaded with dye for 40 minutes at 37° C., then washed 4 times with HBSS/HEPES Buffer. For both the agonist and antagonist assay, the test compounds are tested between 0.64 nM-10,000 nM. For an agonist assay, the reaction is initiated by the addition of the appropriate dilutions of compounds and the transient calcium signal captured. The peak height of the calcium curve is determined and utilized for calculation of EC50 and efficacy using ActivityBase. Norepinephrine is the standard full agonist used for evaluating alpha-1 and alpha-2 receptor activity.

bovine a1A receptor = biological target: T2, bovine a1A receptor (Bos taurus, UniProt P18130); experiment: cell-based; details: for a1A efficacy: FLIPR agonist assay, HEK 293 cells, norepinephrine is the standard full agonist
T2 sequence (P18130 1-466): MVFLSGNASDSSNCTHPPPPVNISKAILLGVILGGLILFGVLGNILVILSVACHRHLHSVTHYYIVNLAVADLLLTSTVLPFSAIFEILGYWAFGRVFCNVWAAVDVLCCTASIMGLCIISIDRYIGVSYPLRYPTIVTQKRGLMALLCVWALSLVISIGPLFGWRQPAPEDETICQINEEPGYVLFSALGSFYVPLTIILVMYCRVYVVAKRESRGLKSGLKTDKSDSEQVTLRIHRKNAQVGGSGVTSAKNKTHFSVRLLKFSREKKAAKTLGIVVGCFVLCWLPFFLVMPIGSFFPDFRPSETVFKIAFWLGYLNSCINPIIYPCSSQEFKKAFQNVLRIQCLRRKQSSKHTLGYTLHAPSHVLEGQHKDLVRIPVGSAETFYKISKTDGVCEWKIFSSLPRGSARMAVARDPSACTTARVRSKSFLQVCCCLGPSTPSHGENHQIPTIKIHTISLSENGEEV
Protocol: as §1

[1] = tested on: Normotensive male Dutch-Belted rabbits (IOP); details: for IOP effect in the contralateral eye: single topical drop onto right eye, untreated eye
Protocol: The experimental animals used, were Normotensive male Dutch-Belted rabbits (Myrtle's Rabbitry) over 6 months in age (n=4/compound/dose screened). A single drop (50 μl) of the drug formulation, was administered topically by pipette onto the right eye (treated eye) at approximately 0700 hours. IOP of the rabbits (treated and untreated eyes) was measured 0 hours before and at 0.5, 1, 2, 3, 4, 6 and 8 hours after topical eyedrop administration. IOP at the time of eyedrop administration (0 hours) was used as a baseline value. Prior to the tonometric measurements, 0.05% proparacaine (50 μl) was administered to each eye. Tonometric IOP measurements were obtained with a Mentor Pneumontonmeter. Additionally, all studies were masked. At least 1 week of wash-out time was allowed for each rabbit between dosings. All animals were examined for sedation, ocular irritation, and changes in pupil diameter throughout the course of the experiments.

SMILES	a2A efficacy (human alpha 2A receptor)	EC50 (bovine a1A receptor) [nM]	a1A efficacy (bovine a1A receptor)	IOP effect at 6 hrs in the treated eye ([1]; 0.15%, single topical drop, DB Rabbits, 6 hrs)	IOP effect in the contralateral eye ([1]; DB Rabbits)	duration of IOP lowering in the treated eye ([1]; 0.15% concentration, single topical drop (50 μl), DB Rabbits)	IOP lowering efficacy compared with brimonidine ([1]; FIG. 1)	intraocular pressure duration compared with brimonidine ([1]; FIG. 1)
Brc1c(NC2=NCCN2)ccc2nccnc12 [Brimonidine, reference compound]	0.95	600 to 2400	0.3	minimal	strong contralateral effect			
Cc1c(CO)cccc1[C@H](C)c1c[nH]cn1 [Compound 1, (S)-[3-(1-(1H-imidazol-4-yl)ethyl)-2-methylphenyl] methanol]	0.9	340 to 2400	0.7		very little effect	at least 6 hours	comparable efficacy to brimonidine	longer intraocular pressure duration than brimonidine

Reference: patent US20250228823A1, “PHARMACEUTICAL COMPOSITIONS COMPRISING (3-(1-(1H-IMIDAZOL-4-YL)ETHYL)-2-METHYLPHENYL)METHANOL” (Allergan, Inc., priority 2010, published 2025)
